Data: article PMC4977564, “Inhibition of Mycobacterium tuberculosis dihydrodipicolinate synthase by alpha-ketopimelic acid and its other structural analogues” (Scientific Reports, 2016)

Columns and labels:
[1] = system: CC(=O)C(=O)O; experiment: purified protein, by the assay type; conditions: pH 7.4; 37.0 °C
[2] = molecular target: T1, Mtb-rDapA (Mycobacterium tuberculosis, UniProt P9WP25); experiment: LC-MS/MRM quantitation of THDP product of the coupled assay; format: biochemical; conditions: MRM, 1 mM KPA (saturating concentration)
T1 sequence (P9WP25 whole entry, looked up): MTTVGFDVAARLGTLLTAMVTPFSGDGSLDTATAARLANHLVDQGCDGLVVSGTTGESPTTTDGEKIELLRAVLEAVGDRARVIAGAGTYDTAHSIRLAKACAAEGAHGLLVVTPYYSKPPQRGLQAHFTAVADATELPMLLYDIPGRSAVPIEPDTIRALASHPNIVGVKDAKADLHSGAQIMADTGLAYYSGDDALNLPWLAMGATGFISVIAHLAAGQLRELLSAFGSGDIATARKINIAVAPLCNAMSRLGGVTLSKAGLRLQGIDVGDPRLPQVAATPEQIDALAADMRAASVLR
Method: The activity of Mtb-rDapA and Mtb-rDapB in catalyzing formation of THDP was confirmed by LC/MS analysis. A reaction mixture contained 1 μg of Mtb-rDapA, 30 μg of Mtb-rDapB, 10 mM pyruvate, 1 mM ASA, 0.16 mM NADPH and 50 mM sodium phosphate buffer pH 7.4 run at 37 °C for 5 min using UV-Vis spectrophotometer for THDP formation. Mtb-rDapA and Mtb-rDapB were then inactivated at 55 °C for 5 min to preserve integrity of reaction products and reaction mixture passed through 10 kDa cutoff filter unit (Millipore, USA) to filter the proteins and centrifuged at 6800 × g. The flow-through containing reaction products was used in LC/MS analysis. In order to observe the effect of inhibitor on THDP formation we added α-KPA in the assay mixture. The sample was subjected to analysis on a LC/ESI-MS (Quattro Micro API, Waters) coupled to a UPLC inlet. The flow through was loaded onto an Acquity UPLC BEH shield RP18, […], 2.1 100 mm column comprising a mobile phase of buffer A (water, 0.1% formic acid) and buffer B (acetonitrile, 0.1% formic acid) at a flow rate of 0.2 ml min^−1. […] Quantitative analysis of THDP formation was carried out by assessment of peak area in multiple reactions monitoring (MRM) mode with precursor ion 172.3 of THDP and corresponding daughter ions 125.6 and 107.5 by using above mentioned LC-MS/MS parameters.

[3] = molecular target: T1, Mtb-rDapA; experiment: Fluorescence-based thermal shift assay; format: binding; conditions: ligand 0.2 mM to 1 mM; Mtb-rDapA Tm 84.8 °C
Text: The fluorescence based thermal shift assay for screening of identified ligands, which is based on the principle that ligand binding alters thermal stability of protein. This method allows us to monitor the protein denaturation upon heating using fluorescence based dye (Sypro orange, Sigma, USA), which binds to hydrophobic part of proteins during protein denaturation and emits fluorescence at 580 nm[43]. We can monitor the changes in fluorescence and generate a thermal melting curve using real time PCR. The mid-point of the melting curve designated as the melting temperature Tm corresponding to 50% of protein being denatured.
The thermal shift assay was carried out in the LightCycler^R LC480 qPCR machine using 384 well PCR plates (Roche, USA). An assay mixture of 20 μl contained 20 μM Mtb-rDapA, 15 X Sypro Orange (Sigma), 50 mM sodium phosphate buffer pH 7.4 and ligand in the range 0.2 mM to 1 mM. The ligands and Mtb-rDapA were diluted in sodium phosphate buffer. The PCR plates were sealed with optical seal, mixed well and centrifuged after the assay mixture was added. […] The fluorescence intensity was measured by excitation at 465 nm and emission at 580 nm. Curve fitting, melting temperature calculation and report generation on the raw Fluorescence based thermal shift assay (FTS) data were performed using pre-installed analysis software provided with the instrument (Roche, USA)[44].

[4] = molecular target: T2, recombinant Mtb-DapA (Mtb-rDapA) (Mycobacterium tuberculosis, UniProt P9WP25); experiment: biochemical
T2 sequence (P9WP25 whole entry, looked up): as above

[5] = molecular target: T1, Mtb-rDapA; experiment: Size exclusion chromatography of Mtb-rDapA oligomerization
Method: Prior to gel filtration, the pre-packed Superdex 200 10/300 column (GE Healthcare) was pre-equilibrated with 50 mM Tris HCl pH 7.5, 150 mM NaCl and 10% glycerol. 25 μM Mtb-rDapA in 25 mM Tris/150 mM NaCl buffer was loaded in 500 μl volume. Multiple fractions of 1 ml volume were collected and each fraction runs on 12% SDS-PAGE gel electrophoresis. The ligand α-KPA in 1:5, 1:10 and 1:50 molar ratio of Mtb-rDapA was incubated with Mtb-rDapA and subjected to run as above. The chromatograms were collected by measuring absorption at 280 nm as a function of buffer volume at a flow rate of 0.3 ml/min. The column was calibrated by passing Apoferritin eluted at 10.5 ml, β-Amylase eluted at 12.5 ml, Alcohol dehydrogenase eluted at 13 ml, BSA eluted at 14.5 ml, carbonic anhydrase eluted at 16.9 ml, and cytochrome C eluted at 19 ml followed by a standard curve generation.

[6] = molecular target: T2, recombinant Mtb-DapA (Mtb-rDapA)

Compound: recombinant Mtb-DapA (Mtb-rDapA) (Mycobacterium tuberculosis H37Rv)
- Km [1]: 148.8 µM

Compound: O=C(O)CCCCC(=O)C(=O)O [compound 1, 2-oxoheptanedioic acid]
- reduction of THDP product peak (SRM peak area / relative abundance) ([2]; listed as KPA): up to 50%
- reduction of THDP product peak (SRM peak area / relative abundance) ([2]; listed as α-KPA): 50%
- Tm increase of Mtb-rDapA upon binding [3]: 1 °C
- Ki [4]: 32.5 µM
- IC50 ([4]; IC50): 160 µM
- IC50 ([4]; IC50, pyruvate 500 μM, ASA 400 μM): 21 µM
- IC50 ([4]; IC50 of α-KPA, pyruvate 0.17 mM, ASA 400 μM, 10 min from start): 21 µM
- IC50 ([4]; IC50 of α-KPA, pyruvate 0.17 mM, ASA 400 μM, 20 min from start): 21 µM
- IC50 ([4]; IC50 of α-KPA, pyruvate 0.17 mM, ASA 400 μM, 30 min from start): 21 µM
- IC50 ([4]; IC50 of α-KPA, pyruvate 0.17 mM, ASA 400 μM, 40 min from start): 31 µM
- IC50 ([4]; IC50 of α-KPA, pyruvate 0.17 mM, ASA 400 μM, 50 min from start): 41 µM
- IC50 ([4]; IC50 of α-KPA, pyruvate 0.17 mM, ASA 400 μM, 60 min from start): 51 µM
- IC50 ([4]; IC50 of α-KPA, pyruvate 0.3 mM, ASA 400 μM, 10 min from start): 21 µM
- IC50 ([4]; IC50 of α-KPA, pyruvate 0.3 mM, ASA 400 μM, 20 min from start): 21 µM
- IC50 ([4]; IC50 of α-KPA, pyruvate 0.3 mM, ASA 400 μM, 30 min from start): 21 µM
- IC50 ([4]; IC50 of α-KPA, pyruvate 0.3 mM, ASA 400 μM, 40 min from start): 31 µM
- IC50 ([4]; IC50 of α-KPA, pyruvate 0.3 mM, ASA 400 μM, 50 min from start): 41 µM
- IC50 ([4]; IC50 of α-KPA, pyruvate 0.3 mM, ASA 400 μM, 60 min from start): 51 µM
- IC50 ([4]; IC50 of α-KPA, pyruvate 1 mM, ASA 400 μM, 10 min from start): 21 µM
- IC50 ([4]; IC50 of α-KPA, pyruvate 1 mM, ASA 400 μM, 20 min from start): 21 µM
- IC50 ([4]; IC50 of α-KPA, pyruvate 1 mM, ASA 400 μM, 30 min from start): 21 µM
- IC50 ([4]; IC50 of α-KPA, pyruvate 1 mM, ASA 400 μM, 40 min from start): 31 µM
- IC50 ([4]; IC50 of α-KPA, pyruvate 1 mM, ASA 400 μM, 50 min from start): 41 µM
- IC50 ([4]; IC50 of α-KPA, pyruvate 1 mM, ASA 400 μM, 60 min from start): 51 µM
- IC50 ([4]; IC50 of α-KPA, pyruvate 2 mM, ASA 400 μM, 10 min from start): 61 µM
- IC50 ([4]; IC50 of α-KPA, pyruvate 2 mM, ASA 400 μM, 20 min from start): 61 µM
- IC50 ([4]; IC50 of α-KPA, pyruvate 2 mM, ASA 400 μM, 30 min from start): 71 µM
- IC50 ([4]; IC50 of α-KPA, pyruvate 2 mM, ASA 400 μM, 40 min from start): 81 µM
- IC50 ([4]; IC50 of α-KPA, pyruvate 2 mM, ASA 400 μM, 50 min from start): 91 µM
- IC50 ([4]; IC50 of α-KPA, pyruvate 2 mM, ASA 400 μM, 60 min from start): 101 µM
- Emax ([4]; read-out: Maximal Inhibition (%)): 88%
- inhibition at 400 µM ([4]; read-out: maximal inhibition): 77%
- effect on Mtb-rDapA oligomerization ([5]; ratios of 1:5 and 1:10 of Mtb-rDapA to α-KPA): the oligomerization was not affected
- effect on Mtb-rDapA oligomerization ([5]; α-KPA in 50-fold molar excess, 37 °C, 5 min): did not obtain any peak corresponding to either the tetramer or the octamer
- fold increase of IC50, pre-incubation with pyruvate vs pre-incubation with α-KPA [6]: ~8 fold
